In patent publication US20140080810A1 (Exelixis, Inc., priority 2010, published 2014):
Where two headings read alike, the source gives them in different places.

Legend:
[1] = target: PI3Kα (Homo sapiens, UniProt P42336); experiment: PI3K Biochemical Assay (ATP consumed, luciferase-luciferin chemiluminescence); conditions: for IC50: PIP2 used as substrate, read-out: PI3K biochemical IC50 values PI3Kα; for specificity among PI3Kα, PI3Kβ, PI3Kδ, PI3Kγ and mTOR: summary of Table 3
Method: (§1) PI3Kα activity is measured as the percent of ATP consumed following the kinase reaction using luciferase-luciferin-coupled chemiluminescence. Reactions were conducted in 384-well white, medium binding microtiter plates (Greiner). Kinase reactions were initiated by combining test compounds, ATP, substrate (PIP2), and kinase in a 20 μL volume in a buffer solution. The standard PI3Kalpha assay buffer is composed 50 mM Tris, pH 7.5, 1 mM EGTA, 10 mM MgCl2, 1 mM DTT and 0.03% CHAPS. The standard assay concentrations for enzyme, ATP, and substrate are 1.5 nM, 1 μM, and 10 μM, respectively. The reaction mixture was incubated at ambient temperature for approximately 2 h. Following the kinase reaction, a 10 μL aliquot of luciferase-luciferin mix (Promega Kinase-Glo) was added and the chemiluminescence signal measured using a Victor2 plate reader (Perkin Elmer). Total ATP consumption was limited to 40-60% and IC50 values of control compounds correlate well with literature references. Substituting PI3Kα with PI3Kβ, PI3Kγ, or PI3Kδ, the inhibitory activity of the compounds for the other isoforms of I3K were measured.

[2] = target: PI3Kβ (Homo sapiens, UniProt P42338); experiment: PI3K Biochemical Assay; conditions: PIP2 used as substrate
Method: as §1, with “Total ATP consumption was limited to 40-60% and IC50 values of control compounds correlate well with literature references.” left out

[3] = system: pAKT (T308) in MCF-7 cells (PI3Kα E545K); experiment: pAKT (T308) ELISA Assay; assay type: cell-based; conditions: Homo sapiens, MCF7
Method: MCF-7 cells (ATCC) cells were seeded at 24000 cells per well in 96-well plates (Corning, 3904) in DMEM (Cellgro) containing 10% FBS (Cellgro), 1% NEAA (Cellgro) and 1% penicillin-streptomycin (Cellgro). Cells were incubated at 37° C., 5% CO2 for 48 h, and the growth medium was replaced with serum-free DMEM or in medium containing 0.4% BSA. Serial dilutions of the test Compound in 0.3% DMSO (vehicle) were added to the cells and incubated for 3 h. At the end of the incubation period, cells were stimulated for 10 minutes by the addition of L-IGF (Sigma, I-1271) at a final concentration of 100 ng/ml. Afterwards, media was discarded from cell plates and 110 μl/well of cold lysis buffer (see table below) were added. Cell plates were incubated on ice and then put on shaker in 4° C. cold room for 1 h. Two capture plates (Thermo Scientific, Reacti-bind plate, 15042) were prepared for each cell plate by pre-coating with capture Akt antibody from the two sandwich ELISA antibody pairs used (Cell Signaling Technology 7142 and 7144). The Akt capture antibodies were diluted 1:100 in PBS and 100 μl of diluted capture antibody was added per well. Capture plates were incubated at 4 C overnight. Prior to use, capture plates were washed 3 times in TBS containing 0.1% Tween20 (Bio-Rad, 170-6351) (TBST) and blocked in blocking buffer (Thermo Scientific, Starting Block T20, 37543) for 1-2 h at room temperature. After 1 h of cell lysis, 85 μl of cell lysate/well was transferred to the capture plate for detection of pAkt(T308). 15 μl of cell lysate was transferred from same well to the second capture plate for detection of total Akt1. After incubation overnight at 4° C., plates were washed 3 times with 200 μL TBST. Primary antibodies, diluted 1:100 in blocking buffer, were added to the corresponding capture plates for pAkt(T308) (Cell Signaling Technology, 7144) and total Akt1 (Cell Signaling Technology, 7142) detection and incubated at room temperature for 1 h. Plates were washed 3 times with 200 μL of TBST. Goat anti-mouse secondary antibody (Cell Signaling Technology, 7076) conjugated to HRP was diluted 1:1000 in blocking buffer and 100 μl were added to each well and incubated for 30 minutes at room temperature. Plates were then washed 3 times with 200 μL of TBST. 100 μL of SuperSignal ELISA Femto stable peroxidase solution (Thermo Scientific, 37075) was added to each well. After 1 minute incubation, chemiluminescence was read on a Wallac Victor2 1420 multilabel counter. IC50 values were determined based on the ratio of pAkt(T308) to total Akt1 signal for Compound treated wells, normalized to the DMSO-treated control wells.
In another embodiment, the pAKT ELISA Assay was performed by seeding cells onto 96-well plates (Corning, 3904) in their respective growth media at the densities listed in Table 5. Cells were incubated at 37° C., 5% CO2 for 48 h (except MDA-MB-453 cells which were cultured in the absence of CO2). Compounds were serially diluted in DMSO and subsequently diluted in serum-free DMEM. Test compounds were added to cells in serum-free DMEM at a final concentration of 0.3% DMSO and incubated for 3 h. Cells were lysed with 130 μL of ice-cold RIPA lysis buffer (50 mM Tris-HCl, pH 7.5; 0.5% sodium deoxycholic acid; 1% Triton X-100; 0.1% SDS; 150 mM NaCl) with protease and phosphatase inhibitors (1 mM EDTA, 1 mM NaF, 20 mM β-glycerophosphate, 1 mM Na-orthovanadate, Complete-Mini EDTA-free, Roche, 11836170001, and Phosphatase Inhibitor Cocktail I, Sigma, P2850), directly in 96-well plates. Cells were lysed on ice for 60-120 min at 4° C. The supernatants were added directly to capture ELISA plates previously pre-coated with rabbit anti-AKT capture antibody. ELISA assays for pAKT(T308) and total AKT were performed with the pAKT(T308) ELISA kit (Cell Signaling Technology, 7144) and AKT1 ELISA kit (Cell Signaling Technology, 7142). For the pAKT(T308) ELISA, 85 μL of cell lysate was added to each well. […]

[4] = IGF1 stimulation, read-out: pAKT (T308) IC50 MCF-7 PI3Kα E545K IGF1
[5] = Table 7, stimulation line of the head prints PI3Kα, read-out: Cellular pAKT (T308) IC50 PI3KαE545K MCF-7

Sequence of PI3Kβ (P42338 whole entry): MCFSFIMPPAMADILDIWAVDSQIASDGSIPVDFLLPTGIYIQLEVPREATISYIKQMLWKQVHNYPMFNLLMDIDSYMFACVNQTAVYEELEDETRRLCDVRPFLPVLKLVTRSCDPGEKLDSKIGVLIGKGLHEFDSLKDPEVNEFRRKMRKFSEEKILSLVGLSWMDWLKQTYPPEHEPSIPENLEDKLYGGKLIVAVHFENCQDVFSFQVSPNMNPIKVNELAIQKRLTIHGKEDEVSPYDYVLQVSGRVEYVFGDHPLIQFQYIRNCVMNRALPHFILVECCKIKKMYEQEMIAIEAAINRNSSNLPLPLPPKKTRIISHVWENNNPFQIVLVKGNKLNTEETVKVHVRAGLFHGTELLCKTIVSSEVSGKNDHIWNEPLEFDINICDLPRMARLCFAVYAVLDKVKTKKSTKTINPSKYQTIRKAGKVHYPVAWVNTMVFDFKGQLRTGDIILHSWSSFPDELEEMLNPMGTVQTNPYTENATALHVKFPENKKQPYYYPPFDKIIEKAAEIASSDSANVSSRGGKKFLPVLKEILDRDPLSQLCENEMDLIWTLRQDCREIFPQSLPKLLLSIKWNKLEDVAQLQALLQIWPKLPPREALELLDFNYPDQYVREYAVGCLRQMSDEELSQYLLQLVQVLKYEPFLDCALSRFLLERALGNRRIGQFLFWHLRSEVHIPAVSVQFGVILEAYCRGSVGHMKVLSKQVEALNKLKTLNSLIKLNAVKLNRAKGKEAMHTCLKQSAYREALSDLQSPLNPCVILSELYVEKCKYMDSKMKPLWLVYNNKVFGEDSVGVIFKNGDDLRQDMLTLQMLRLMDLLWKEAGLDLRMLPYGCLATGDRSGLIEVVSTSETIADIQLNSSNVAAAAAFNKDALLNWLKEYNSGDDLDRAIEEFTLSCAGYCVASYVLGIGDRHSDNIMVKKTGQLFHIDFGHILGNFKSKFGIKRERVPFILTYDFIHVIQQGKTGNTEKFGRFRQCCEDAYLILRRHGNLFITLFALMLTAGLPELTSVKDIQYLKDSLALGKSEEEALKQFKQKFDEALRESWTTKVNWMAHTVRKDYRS
Sequence of PI3Kβ (P27986 whole entry partner): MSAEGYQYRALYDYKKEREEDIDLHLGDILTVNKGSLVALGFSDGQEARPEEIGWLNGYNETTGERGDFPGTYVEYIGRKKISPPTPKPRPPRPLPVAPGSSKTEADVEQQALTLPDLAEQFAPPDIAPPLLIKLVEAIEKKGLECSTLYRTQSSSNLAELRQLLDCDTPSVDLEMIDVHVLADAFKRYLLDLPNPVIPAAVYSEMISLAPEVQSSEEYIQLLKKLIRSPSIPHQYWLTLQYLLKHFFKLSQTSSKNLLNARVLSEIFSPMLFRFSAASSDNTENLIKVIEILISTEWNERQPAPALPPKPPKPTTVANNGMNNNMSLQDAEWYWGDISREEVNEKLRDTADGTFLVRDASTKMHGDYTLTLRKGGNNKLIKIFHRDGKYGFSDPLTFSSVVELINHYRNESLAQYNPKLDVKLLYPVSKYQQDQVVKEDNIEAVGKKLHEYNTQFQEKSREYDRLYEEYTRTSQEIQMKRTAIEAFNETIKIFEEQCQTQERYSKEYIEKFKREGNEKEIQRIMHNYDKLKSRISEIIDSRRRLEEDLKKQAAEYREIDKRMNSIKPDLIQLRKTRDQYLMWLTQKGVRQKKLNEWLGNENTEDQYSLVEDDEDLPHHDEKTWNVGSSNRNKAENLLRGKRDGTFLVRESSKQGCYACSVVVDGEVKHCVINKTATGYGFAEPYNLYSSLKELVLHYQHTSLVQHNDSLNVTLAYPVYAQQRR
Sequence of PI3Kα (P42336 whole entry): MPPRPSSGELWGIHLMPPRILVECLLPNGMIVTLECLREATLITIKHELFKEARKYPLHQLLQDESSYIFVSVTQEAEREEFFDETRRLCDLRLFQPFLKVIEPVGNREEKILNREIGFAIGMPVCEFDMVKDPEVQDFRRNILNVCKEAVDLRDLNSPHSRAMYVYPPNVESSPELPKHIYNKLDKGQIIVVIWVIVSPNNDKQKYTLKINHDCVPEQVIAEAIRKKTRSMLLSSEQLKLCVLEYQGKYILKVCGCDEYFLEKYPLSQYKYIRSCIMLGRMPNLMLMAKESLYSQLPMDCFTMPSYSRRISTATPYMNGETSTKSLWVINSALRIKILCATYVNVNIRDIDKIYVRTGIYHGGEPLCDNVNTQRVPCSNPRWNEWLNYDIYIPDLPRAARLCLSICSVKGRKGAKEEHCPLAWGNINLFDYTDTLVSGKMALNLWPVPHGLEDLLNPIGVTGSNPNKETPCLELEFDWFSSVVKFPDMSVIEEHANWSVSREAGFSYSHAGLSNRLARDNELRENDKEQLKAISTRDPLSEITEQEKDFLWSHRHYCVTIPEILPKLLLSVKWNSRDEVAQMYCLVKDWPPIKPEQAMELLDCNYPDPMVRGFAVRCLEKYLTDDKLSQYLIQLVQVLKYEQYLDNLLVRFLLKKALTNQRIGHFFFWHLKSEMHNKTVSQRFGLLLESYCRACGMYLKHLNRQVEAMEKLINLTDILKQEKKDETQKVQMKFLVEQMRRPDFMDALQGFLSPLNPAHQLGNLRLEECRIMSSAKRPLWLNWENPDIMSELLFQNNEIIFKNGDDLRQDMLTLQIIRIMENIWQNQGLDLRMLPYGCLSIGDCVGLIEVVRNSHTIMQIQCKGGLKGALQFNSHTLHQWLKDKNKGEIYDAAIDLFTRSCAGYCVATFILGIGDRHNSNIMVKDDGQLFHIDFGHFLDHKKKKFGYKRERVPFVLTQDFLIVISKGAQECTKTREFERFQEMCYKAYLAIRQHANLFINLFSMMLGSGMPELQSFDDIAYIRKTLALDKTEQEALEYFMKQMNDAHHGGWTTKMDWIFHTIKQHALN
Sequence of PI3Kα (P27986 whole entry partner): as the sequence (P27986 whole entry partner) above

## Cc1nc2ncc(-c3ccc4c(c3)CN(c3nc(CN(C)C)nc5c3CC(C)(C)CC5)CCO4)cc2[nH]1 [Compound 693]
[1]
  IC50: 2 nM
[2]
  IC50: > 3000 nM
[3]; [4]
  IC50: 120 nM
[3]; [5]
  IC50: 120 nM

## Cc1nc2cc(-c3ccc4c(c3)CN(c3nc(CN(C)C)nc(C)c3C(C)C)CCO4)cnc2[nH]1 [Compound 694]
[1]
  IC50: 4 nM
[2]
  IC50: > 3000 nM
[3]; [4]
  IC50: 135 nM
[3]; [5]
  IC50: 135 nM

## COc1ccc2c(N3CCOc4ccc(-c5cnc6nc(C)[nH]c6c5)cc4C3)nc(CN(C)C)nc2c1 [Compound 696]
[1]
  IC50: 3 nM
  specificity among PI3Kα, PI3Kβ, PI3Kδ, PI3Kγ and mTOR: specific for PI3Kα isoforms
[2]
  IC50: 1310 nM
[3]; [4]
  IC50: 1650 nM
[3]; [5]
  IC50: 1650 nM

## CCNc1nc2ccc(-c3ccc4c(c3)CN(c3ccnc5cc(F)ccc35)CCO4)cc2[nH]1 [Compound 698]
[1]
  IC50: 3 nM
  specificity among PI3Kα, PI3Kβ, PI3Kδ, PI3Kγ and mTOR: specific for PI3Kα isoforms
[2]
  IC50: 1560 nM
[3]; [4]
  IC50: 2240 nM
[3]; [5]
  IC50: 2240 nM

## CCNc1nc2ccc(-c3ccc4c(c3)CN(c3ncnc(NCC)c3C)CCO4)cc2[nH]1 [Compound 699]
[1]
  IC50: 6 nM
  specificity among PI3Kα, PI3Kβ, PI3Kδ, PI3Kγ and mTOR: specific for PI3Kα isoforms
[2]
  IC50: 1740 nM
[3]; [4]
  IC50: 2400 nM
[3]; [5]
  IC50: 2400 nM
